# Article PMC6397271 (Scientific Reports, 2019)
# Like-named read-outs stand apart in the source and are kept apart here.
# Experiments:
# Experiment in all cases: microbe, parasite or virus in culture
# [1] = test system: S. aureus MRSA 12673; type: cell-based, Staphylococcus aureus; details: for MIC: raw MIC
# Text: (§1) Three bacterial strains of MRSA (N315, 12673, 6347) and two of Enterococcus spp. (E. faecium, E. faecalis) were used. With respect to MRSA, N315 represented a reference Van-susceptible strain (GenBank GCA_00000645.1) isolated from a patient while 12673 (Van-intermediately susceptible) and 6347 (a h-VISA which appears at frequency of <10^−5 to 10^−6 is composed of two subpopulations of bacteria: one susceptible and one intermediately resistant)[38] were clinical strains obtained from patients of The Clinical University Centre of Gdańsk (UCK). […] The clinical strain isolates originated from the collection of the Department of Pharmaceutical Technology and Biochemistry, Faculty of Chemistry, Gdańsk University of Technology.
# (§2) The strains were grown in Mueller-Hinton broth (MH cation-adjusted, Becton Dickinson) or Brain Heart Infusion broth (BHI, Becton Dickinson), respectively. The cultivation was carried out in an aerobic atmosphere at 37 °C for 24 hours and, afterwards, the bacterial cultures were diluted in geometric progression with a proper broth. Next, 100 µl of each dilution was inoculated in an agar plate and incubated at 37 °C for 24 h. The next procedures included determination of Colony Forming Units (CFU)/ml and minimal inhibitory concentration (MIC) of the compounds in question. The latter procedure was carried out according to the microbroth dilution technique using 96-well plates. The MICs were evaluated by using the metabolic assay based on the resazurin dye. The assay was performed in triplicates.
# [2] = test system: S. aureus MRSA N315; type: cell-based, Staphylococcus aureus; details: for MIC: raw MIC
# Text: as §1, §2
# [3] = test system: S. aureus MRSA hetero-VISA 6347; type: cell-based, Staphylococcus aureus; details: for MIC: raw MIC
# Text: as §1, §2
# [4] = test system: Enterococcus faecalis 3937158; type: cell-based
# Text: as §1, §2
# [5] = test system: Enterococcus faecium 3934825; type: cell-based; details: for MIC: raw MIC
# Text: as §1, §2
# [6] = first block, test a, repetition 1, read-out: MIC1a
# [7] = first block, test a, repetition 2, read-out: MIC2a
# [8] = first block, test a, repetition 3, read-out: MIC3a
# [9] = first block, test b, repetition 1, read-out: MIC1b
# [10] = first block, test b, repetition 2, read-out: MIC2b
# [11] = first block, test b, repetition 3, read-out: MIC3b
# [12] = test a, repetition 1, read-out: MIC1a
# [13] = test a, repetition 2, read-out: MIC2a
# [14] = test a, repetition 3, read-out: MIC3a
# [15] = test b, repetition 1, read-out: MIC1b
# [16] = test b, repetition 2, read-out: MIC2b
# [17] = test b, repetition 3, read-out: MIC3b
# [18] = same test as μM value, mean ± SD
compound,measurement,setting,value
"CC[C@H](C)[C@H](NC(=O)[C@H](CCCCN)NC(=O)[C@H](CCCCN)NC(=O)[C@H](C)NC(=O)[C@H](CC(C)C)NC(=O)[C@H](C)NC(=O)[C@H](C)NC(=O)[C@H](CC(C)C)NC(=O)[C@H](C)NC(=O)[C@H](CCCCN)NC(=O)[C@H](CC(C)C)NC(=O)[C@H](CC(N)=O)NC(=O)[C@@H](NC(=O)[C@H](CCCCN)NC(=O)CNC(=O)[C@H](CC(C)C)NC(=O)[C@H](CC(C)C)NC(=O)[C@H](Cc1ccc(O)cc1)NC(=O)CNC(=O)[C@H](C)N)[C@@H](C)CC)C(=O)N[C@@H](CC(C)C)C(=O)N[C@@H](Cc1cn(CCOCCOCCOCCOCCC(=O)N[C@@]2(C)C[C@H](O[C@H]3[C@H](Oc4c5cc6cc4Oc4ccc(cc4Cl)[C@@H](O)[C@@H](NC(=O)[C@@H](CC(C)C)NC)C(=O)N[C@@H](CC(N)=O)C(=O)N[C@H]6C(=O)N[C@H]4C(=O)N[C@H](C(=O)N[C@H](C(=O)O)c6cc(O)cc(O)c6-c6cc4ccc6O)[C@H](O)c4ccc(c(Cl)c4)O5)O[C@H](CO)[C@@H](O)[C@@H]3O)O[C@@H](C)[C@H]2O)nn1)C(N)=O [conjugate III, TP10-Ala(PEG4-Van)]",MIC,[1]; [6],0.78 µM
same,MIC,[1]; [7],1.56 µM
same,MIC,[1]; [8],0.78 µM
same,MIC,[1]; [9],0.78 µM
same,MIC,[1]; [10],1.56 µM
same,MIC,[1]; [11],0.78 µM
same,MIC,[1]; [12],3.12 µM
same,MIC,[1]; [13],6.24 µM
same,MIC,[1]; [14],3.12 µM
same,MIC,[1]; [15],3.12 µM
same,MIC,[1]; [16],6.24 µM
same,MIC,[1]; [17],3.12 µM
same,MIC in (μg/ml),[1]; [18],3.1 ± 1.6 µg/mL
same,MIC,[2]; [6],12.5 µM
same,MIC,[2]; [7],6.25 µM
same,MIC,[2]; [8],12.5 µM
same,MIC,[2]; [9],12.5 µM
same,MIC,[2]; [10],12.5 µM
same,MIC,[2]; [11],6.25 µM
same,MIC,[2]; [12],50.01 µM
same,MIC,[2]; [13],25.01 µM
same,MIC,[2]; [14],50.01 µM
same,MIC,[2]; [15],50.01 µM
same,MIC,[2]; [16],50.01 µM
same,MIC,[2]; [17],25.01 µM
same,MIC in (μg/ml),[2]; [18],50.0 ± 12.9 µg/mL
same,MIC,[3]; [6],1.6 µM
same,MIC,[3]; [7],0.78 µM
same,MIC,[3]; [8],0.78 µM
same,MIC,[3]; [9],1.6 µM
same,MIC,[3]; [10],1.6 µM
same,MIC,[3]; [11],1.6 µM
same,MIC,[3]; [12],6.4 µM
same,MIC,[3]; [13],3.2 µM
same,MIC,[3]; [14],3.2 µM
same,MIC,[3]; [15],6.4 µM
same,MIC,[3]; [16],6.4 µM
same,MIC,[3]; [17],6.4 µM
same,MIC in (μg/ml),[3]; [18],6.4 ± 1.7 µg/mL
same,MIC,"[4]; microbroth dilution, 96-well, resazurin, 37 °C, 24 h, mean ± SD, at least three independent experiments in triplicates",25.0 ± 5.1 µM
same,MIC,"[4]; raw MIC, first block, test a, repetition 1, read-out: MIC1a",25 µM
same,MIC,"[4]; raw MIC, first block, test a, repetition 2, read-out: MIC2a",25 µM
same,MIC,"[4]; raw MIC, first block, test a, repetition 3, read-out: MIC3a",25 µM
same,MIC,"[4]; raw MIC, first block, test b, repetition 1, read-out: MIC1b",12.5 µM
same,MIC,"[4]; raw MIC, first block, test b, repetition 2, read-out: MIC2b",25 µM
same,MIC,"[4]; raw MIC, first block, test b, repetition 3, read-out: MIC3b",25 µM
same,MIC,"[4]; raw MIC, test a, repetition 1, read-out: MIC1a",100.02 µM
same,MIC,"[4]; raw MIC, test a, repetition 2, read-out: MIC2a",100.02 µM
same,MIC,"[4]; raw MIC, test a, repetition 3, read-out: MIC3a",100.02 µM
same,MIC,"[4]; raw MIC, test b, repetition 1, read-out: MIC1b",50.01 µM
same,MIC,"[4]; raw MIC, test b, repetition 2, read-out: MIC2b",100.02 µM
same,MIC,"[4]; raw MIC, test b, repetition 3, read-out: MIC3b",100.02 µM
same,MIC in (μg/ml),[4]; [18],100.0 ± 20.4 µg/mL
same,MIC,[5]; [6],12.5 µM
same,MIC,[5]; [7],6.25 µM
same,MIC,[5]; [8],12.5 µM
same,MIC,[5]; [9],6.25 µM
same,MIC,[5]; [10],12.5 µM
same,MIC,[5]; [11],12.5 µM
same,MIC,[5]; [12],50.01 µM
same,MIC,[5]; [13],25.01 µM
same,MIC,[5]; [14],50.01 µM
same,MIC,[5]; [15],25.01 µM
same,MIC,[5]; [16],50.01 µM
same,MIC,[5]; [17],50.01 µM
same,MIC in (μg/ml),[5]; [18],50.0 ± 12.9 µg/mL
